Laboratory results as given in US5665586A, “Protease from Streptomyces fradiae” (Shionogi & Co., Ltd., priority 1992, dated 1997).
Read-outs that look alike come from different tables or passages of the source. Each block holds one compound with its values, some of them ahead of it. Where a SMILES comes first, the peptide text is derived from it. The star is where a group is joined. pNA = O=[N+]([O-])c1ccc(N*)cc1; Cbz = O=C(OCc1ccccc1)*; Boc = CC(C)(C)OC(=O)*; CH2Cl = ClC*

Assays:
[1] = biological target: T1, SFase (Streptomyces fradiae, UniProt Q03424); assay: Effect of inhibitors on SFase (residual activity, substrate Z-Phe-Leu-Glu-pNA); type: biochemical
[2] = biological target: T1, SFase; assay: Substrate specificity of SFase on synthetic pNA substrates (p-nitroaniline release, A410 nm); type: biochemical; details: 50 mM Tris-HCl, 2 mM CaCl2, pH 7.5, 25° C.
Procedure: 1. […] The present enzyme was added thereto to cause a reaction at a temperature of 25° C. By measuring the absorbance (410 nm) of p-nitroaniline released through the enzymatic reaction into the reaction solution, the amount (A410 nm) of p-nitroaniline released per mg each substrate per 1 minute was calculated.

[3] = inhibitor 0.5 mM, preincubation 37° C., 1 hour, enzyme 1.0 μg/ml, 0.2 mM Z-Phe-Leu-Glu-pNA, pH 7.5, 25° C., read-out: Residual Activity (%)
[4] = pH 7.5, read-out: Residual Activity (%)

T1 sequence (Q03424 171-357): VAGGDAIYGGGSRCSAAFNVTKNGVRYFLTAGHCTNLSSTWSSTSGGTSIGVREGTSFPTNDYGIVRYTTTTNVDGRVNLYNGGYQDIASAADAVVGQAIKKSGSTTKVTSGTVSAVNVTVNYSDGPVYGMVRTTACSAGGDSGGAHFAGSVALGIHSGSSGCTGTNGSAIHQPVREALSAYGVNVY

remaining activity at 500 µM [1, 3]: 102%
SMILES: C[C@H](NC(=O)[C@H](C)NC(=O)[C@H](C)NC(=O)OC(C)(C)C)C(=O)CCl [Boc--Ala--Ala--Ala--CK]

amount (A410 nm) of p-nitroaniline released per mg per 1 minute ([2]; substrate 0.20 mM, DMF 2.0%): 14.3 A 410 nm /mg/min
SMILES: C[C@H](NC(=O)OC(C)(C)C)C(=O)N[C@@H](C)C(=O)N[C@@H](CC(=O)O)C(=O)Nc1ccc([N+](=O)[O-])cc1 [Boc--Ala--Ala--Asp--pNA] (Boc-Ala-Ala-Asp-pNA)

amount (A410 nm) of p-nitroaniline released per mg per 1 minute ([2]; substrate 0.20 mM, DMF 2.0%): 126.2 A 410 nm /mg/min
SMILES: C[C@H](NC(=O)OC(C)(C)C)C(=O)N[C@@H](C)C(=O)N[C@@H](CCC(=O)O)C(=O)Nc1ccc([N+](=O)[O-])cc1 [Boc--Ala--Ala--Glu--pNA] (Boc-Ala-Ala-Glu-pNA)

inhibition of SFase (in words) ([1]; Table 2): completely inhibited
SMILES: CC(C)C[C@H](NC(=O)[C@H](Cc1ccccc1)NC(=O)OC(C)(C)C)C(=O)N[C@@H](CCC(=O)O)C(=O)CCl [Boc-Phe-Leu-Glu-chloromethylketone] (Boc-Phe-Leu-Glu-CH2Cl)

amount (A410 nm) of p-nitroaniline released per mg per 1 minute ([2]; substrate 0.50 mM, DMSO 1.0%): 0 A 410 nm /mg/min
SMILES: N=C(N)NCCC[C@H](NC(=O)c1ccccc1)C(=O)Nc1ccc([N+](=O)[O-])cc1 [Bz--Arg--pNA]

amount (A410 nm) of p-nitroaniline released per mg per 1 minute ([2]; substrate 0.02 mM, DMF 2.0%): 0 A 410 nm /mg/min
SMILES: O=C(N[C@@H](Cc1ccc(O)cc1)C(=O)Nc1ccc([N+](=O)[O-])cc1)c1ccccc1 [Bz--Tyr--pNA]

SMILES: O=C(O)CN(CCN(CC(=O)O)CC(=O)O)CC(=O)O [EDTA, ethylenediaminetetraacetic acid]
inhibition of SFase (in words) [1]: not inhibited
remaining activity at 100 µM [1, 4]: 110%
remaining activity at 1000 µM [1, 4]: 113%
remaining activity at 10000 µM [1, 4]: 126%

amount (A410 nm) of p-nitroaniline released per mg per 1 minute ([2]; substrate 2.00 mM, no solvent): 0 A 410 nm /mg/min
SMILES: CC(C)C[C@H](N)C(=O)Nc1ccc([N+](=O)[O-])cc1 [Leu--pNA]

inhibition of SFase (in words) ([1]; Table 2): not inhibited
remaining activity at 100 µM ([1]; inhibitor 0.1 mM, preincubation 37° C., 1 hour, enzyme 1.0 μg/ml, 0.2 mM Z-Phe-Leu-Glu-pNA, pH 7.5, 25° C., read-out: Residual Activity (%)): 106%
remaining activity at 1000 µM ([1]; inhibitor 1.0 mM, preincubation 37° C., 1 hour, enzyme 1.0 μg/ml, 0.2 mM Z-Phe-Leu-Glu-pNA, pH 7.5, 25° C., read-out: Residual Activity (%)): 108%
remaining activity at 10000 µM ([1]; inhibitor 10.0 mM, preincubation 37° C., 1 hour, enzyme 1.0 μg/ml, 0.2 mM Z-Phe-Leu-Glu-pNA, pH 7.5, 25° C., read-out: Residual Activity (%)): 104%
SMILES: c1cnc2c(c1)ccc1cccnc12 [OP, o-phenanthroline]

amount (A410 nm) of p-nitroaniline released per mg per 1 minute ([2]; substrate 0.20 mM, no solvent): 0 A 410 nm /mg/min
SMILES: C[C@H](NC(=O)CCC(=O)O)C(=O)N[C@@H](C)C(=O)N[C@@H](C)C(=O)Nc1ccc([N+](=O)[O-])cc1 [Suc--Ala--Ala--Ala--pNA]

SMILES: Cc1ccc(S(=O)(=O)N[C@@H](CCCCN)C(=O)CCl)cc1 [TLCK, Tosyl-Lys-chloromethylketone]
inhibition of SFase (in words) [1]: inhibited by neither
remaining activity at 500 µM [1, 4]: 112%

inhibition of SFase (in words) ([1]; Table 2): inhibited by neither
remaining activity at 500 µM [1, 3]: 101%
SMILES: Cc1ccc(S(=O)(=O)N[C@@H](Cc2ccccc2)C(=O)CCl)cc1 [TPCK, Tosyl-Phe-chloromethylketone]

amount (A410 nm) of p-nitroaniline released per mg per 1 minute ([2]; substrate 0.125 mM, DMF 5.0%): 0 A 410 nm /mg/min
SMILES: CC(C)C[C@H](NC(=O)[C@H](C)NC(=O)[C@H](C)NC(=O)OCc1ccccc1)C(=O)Nc1ccc([N+](=O)[O-])cc1 [Z--Ala--Ala--Leu--pNA] (Cbz-Ala-Ala-Leu-pNA)

amount (A410 nm) of p-nitroaniline released per mg per 1 minute ([2]; substrate 0.20 mM, DMF 2.0%): 0 A 410 nm /mg/min
SMILES: O=C(CNC(=O)OCc1ccccc1)N[C@@H](CO)C(=O)Nc1ccc([N+](=O)[O-])cc1 [Z--Gly--Ser--pNA] (Cbz-Gly-Ser-pNA)

remaining activity at 500 µM [1, 3]: 0%
SMILES: CC(C)C[C@H](NC(=O)[C@H](Cc1ccccc1)NC(=O)OCc1ccccc1)C(=O)N[C@@H](CCC(=O)O)C(=O)CCl [Z--Phe--Leu--Glu--CK] (Cbz-Phe-Leu-Glu-CH2Cl)

amount (A410 nm) of p-nitroaniline released per mg per 1 minute ([2]; substrate 0.20 mM, DMF 0.2%): 319.1 A 410 nm /mg/min
SMILES: CC(C)C[C@H](NC(=O)[C@H](Cc1ccccc1)NC(=O)OCc1ccccc1)C(=O)N[C@@H](CCC(=O)O)C(=O)Nc1ccc([N+](=O)[O-])cc1 [Z--Phe--Leu--Glu--pNA, Z-Phe-Leu-Glu-pNA] (Cbz-Phe-Leu-Glu-pNA)

amount (A410 nm) of p-nitroaniline released per mg per 1 minute ([2]; substrate 0.20 mM, DMF 2.0%): 0 A 410 nm /mg/min
SMILES: O=C(N[C@@H](Cc1c[nH]c2ccccc12)C(=O)Nc1ccc([N+](=O)[O-])cc1)OCc1ccccc1 [Z--Trp--pNA]
